Data published in ChEMBL document CHEMBL5331073, “Discovery of novel 7,7-dimethyl-6,7-dihydro-5H-pyrrolo[3,4-d]pyrimidines as ATR inhibitors based on structure-based drug design” (Eur J Med Chem, 2023).
pIC50: −log10 of the molar value. Converted amounts (≈) assume the structure as drawn. The source made the active and inactive calls. The rule behind the calls is not given here.

Tests used:
[1] = target: Serine/threonine-protein kinase ATR (Homo sapiens, UniProt Q13535); assay: Inhibition of ATR (unknown origin) using peptide as substrate preincubated for 10 mins followed by substrate addition by microplate reader analysis
Sequence of Serine/threonine-protein kinase ATR (Q13535 whole entry): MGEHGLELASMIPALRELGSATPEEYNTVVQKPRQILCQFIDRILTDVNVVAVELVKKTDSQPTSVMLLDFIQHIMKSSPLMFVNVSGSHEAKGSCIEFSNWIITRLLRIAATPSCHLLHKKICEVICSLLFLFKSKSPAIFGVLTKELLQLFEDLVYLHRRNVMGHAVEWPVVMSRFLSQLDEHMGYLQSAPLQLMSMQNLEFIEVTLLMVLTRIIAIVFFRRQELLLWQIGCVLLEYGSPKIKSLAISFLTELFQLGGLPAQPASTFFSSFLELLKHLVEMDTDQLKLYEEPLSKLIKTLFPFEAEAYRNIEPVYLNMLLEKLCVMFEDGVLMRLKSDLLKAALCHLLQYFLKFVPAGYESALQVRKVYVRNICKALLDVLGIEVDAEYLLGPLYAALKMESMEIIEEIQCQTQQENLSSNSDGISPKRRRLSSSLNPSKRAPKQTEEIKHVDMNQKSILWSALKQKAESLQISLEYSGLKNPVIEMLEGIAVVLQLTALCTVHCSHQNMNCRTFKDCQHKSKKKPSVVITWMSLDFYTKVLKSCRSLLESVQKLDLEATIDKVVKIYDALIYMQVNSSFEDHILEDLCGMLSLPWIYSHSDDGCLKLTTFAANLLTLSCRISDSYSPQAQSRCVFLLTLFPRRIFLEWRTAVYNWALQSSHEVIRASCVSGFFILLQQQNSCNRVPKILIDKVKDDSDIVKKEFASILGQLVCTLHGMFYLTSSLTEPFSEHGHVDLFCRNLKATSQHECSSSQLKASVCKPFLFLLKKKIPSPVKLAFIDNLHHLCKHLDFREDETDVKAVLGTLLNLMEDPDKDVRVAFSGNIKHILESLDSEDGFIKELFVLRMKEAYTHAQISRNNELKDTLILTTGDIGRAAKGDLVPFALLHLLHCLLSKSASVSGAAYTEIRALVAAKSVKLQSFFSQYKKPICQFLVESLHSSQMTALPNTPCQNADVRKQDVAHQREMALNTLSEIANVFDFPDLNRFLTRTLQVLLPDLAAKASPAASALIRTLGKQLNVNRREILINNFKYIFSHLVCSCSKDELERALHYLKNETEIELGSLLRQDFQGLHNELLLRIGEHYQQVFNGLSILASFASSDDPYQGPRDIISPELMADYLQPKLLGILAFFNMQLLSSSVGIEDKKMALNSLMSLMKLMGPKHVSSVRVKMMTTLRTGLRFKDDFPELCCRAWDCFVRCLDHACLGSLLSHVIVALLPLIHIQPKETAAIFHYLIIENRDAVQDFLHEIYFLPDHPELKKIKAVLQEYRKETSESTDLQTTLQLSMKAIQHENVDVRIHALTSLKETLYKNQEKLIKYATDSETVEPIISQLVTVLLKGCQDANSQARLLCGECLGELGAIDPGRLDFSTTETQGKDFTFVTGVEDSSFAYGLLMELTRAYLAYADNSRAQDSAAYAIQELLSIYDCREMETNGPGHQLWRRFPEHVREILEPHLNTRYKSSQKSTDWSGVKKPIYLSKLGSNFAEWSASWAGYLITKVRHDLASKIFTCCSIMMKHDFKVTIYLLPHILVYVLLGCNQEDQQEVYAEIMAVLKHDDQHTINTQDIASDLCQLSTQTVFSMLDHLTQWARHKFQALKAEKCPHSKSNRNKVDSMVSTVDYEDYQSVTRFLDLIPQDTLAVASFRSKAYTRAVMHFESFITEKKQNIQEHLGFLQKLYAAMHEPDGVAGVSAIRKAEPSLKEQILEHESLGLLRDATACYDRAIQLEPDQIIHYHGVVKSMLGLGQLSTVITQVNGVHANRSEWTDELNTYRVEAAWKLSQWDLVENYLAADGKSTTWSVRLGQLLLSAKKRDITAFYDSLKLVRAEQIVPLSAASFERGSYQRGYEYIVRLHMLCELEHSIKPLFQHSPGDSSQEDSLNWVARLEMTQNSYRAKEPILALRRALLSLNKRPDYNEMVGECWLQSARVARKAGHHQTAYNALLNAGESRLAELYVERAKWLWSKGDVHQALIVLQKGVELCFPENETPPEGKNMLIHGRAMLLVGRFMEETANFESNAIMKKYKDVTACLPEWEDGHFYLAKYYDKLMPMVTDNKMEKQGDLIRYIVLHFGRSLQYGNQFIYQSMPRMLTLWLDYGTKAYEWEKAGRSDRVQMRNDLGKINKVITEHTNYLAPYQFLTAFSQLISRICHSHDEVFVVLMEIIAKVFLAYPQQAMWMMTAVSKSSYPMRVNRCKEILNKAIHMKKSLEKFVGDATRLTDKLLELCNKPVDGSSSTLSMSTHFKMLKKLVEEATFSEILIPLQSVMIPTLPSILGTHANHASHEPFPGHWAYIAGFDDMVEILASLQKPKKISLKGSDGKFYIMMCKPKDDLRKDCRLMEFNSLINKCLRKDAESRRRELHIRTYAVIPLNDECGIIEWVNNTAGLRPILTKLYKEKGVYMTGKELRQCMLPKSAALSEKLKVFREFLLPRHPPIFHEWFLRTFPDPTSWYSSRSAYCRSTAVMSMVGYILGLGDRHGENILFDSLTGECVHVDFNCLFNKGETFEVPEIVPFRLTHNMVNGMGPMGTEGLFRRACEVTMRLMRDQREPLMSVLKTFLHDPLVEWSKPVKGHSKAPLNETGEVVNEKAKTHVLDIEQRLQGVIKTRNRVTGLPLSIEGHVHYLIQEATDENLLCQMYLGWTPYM

LoVo [2] = assay: Antiproliferative activity against ATM-deficient human LoVo cells assessed as reduction in cell proliferation incubated for 3 days by MTT assay; assay type: functional, cell-based; conditions: 72 h
[3] = AUC(0 to infinity) in Sprague-Dawley rat at 1 mg/kg, iv and measured upto 24 hrs by LC-MS analysis; assay type: ADME, organism-based; parameters: time < 24 hrs, dose 1 mg/kg, route iv; conditions: in vivo
[4] = AUCt in Sprague-Dawley rat at 1 mg/kg, iv and measured upto 24 hrs by LC-MS analysis; assay type: ADME, organism-based; parameters: dose 1 mg/kg, time < 24 hrs, route iv; conditions: in vivo
[5] = Clearance in Sprague-Dawley rat at 1 mg/kg, iv and measured upto 24 hrs by LC-MS analysis; assay type: ADME, organism-based; conditions: in vivo
[6] = Half life in Sprague-Dawley rat at 5 mg/kg, po and measured upto 24 hrs by LC-MS analysis; assay type: ADME, organism-based; conditions: in vivo
[7] = AUC (0 to infinity) in Sprague-Dawley rat at 5 mg/kg, po and measured upto 24 hrs by LC-MS analysis; assay type: ADME, organism-based; parameters: time < 24 hrs, dose 5 mg/kg, route po; conditions: in vivo
Cytochrome P450 3A4 [8] = target: T1, Cytochrome P450 3A4 (Homo sapiens, UniProt P08684); assay: Inhibition of CYP3A4 in human liver microsomes using midazolam as substrate preincubated for 5 mins followed by NADPH addition and measured after 120 mins by LC-MS/MS analysis; assay type: ADME, Microsome
T1 sequence (P08684 whole entry): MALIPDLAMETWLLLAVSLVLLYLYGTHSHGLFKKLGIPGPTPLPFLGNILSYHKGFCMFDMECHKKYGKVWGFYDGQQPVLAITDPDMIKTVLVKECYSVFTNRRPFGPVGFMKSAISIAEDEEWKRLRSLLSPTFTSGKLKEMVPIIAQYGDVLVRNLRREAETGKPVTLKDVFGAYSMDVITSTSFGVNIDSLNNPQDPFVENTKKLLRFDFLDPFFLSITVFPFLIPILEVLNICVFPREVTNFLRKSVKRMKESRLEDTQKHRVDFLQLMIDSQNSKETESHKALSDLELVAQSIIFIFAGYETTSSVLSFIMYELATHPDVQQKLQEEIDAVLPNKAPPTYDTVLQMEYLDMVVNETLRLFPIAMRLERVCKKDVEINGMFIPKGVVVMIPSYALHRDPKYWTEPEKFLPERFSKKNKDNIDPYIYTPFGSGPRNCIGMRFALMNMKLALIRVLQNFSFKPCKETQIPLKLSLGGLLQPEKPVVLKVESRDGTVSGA

Cytochrome P450 3A4 [9] = target: T1, Cytochrome P450 3A4; assay: Inhibition of CYP3A4 in human liver microsomes using […] as substrate preincubated for 5 mins followed by NADPH addition and measured after 120 mins by LC-MS/MS analysis; assay type: ADME, Microsome
[10] = Protein binding in human plasma at 1 uM incubated for 6 hrs by dialysis based LC-MS/MS analysis; assay type: ADME, cell-free; conditions: read-out: PPB (converted)
[11] = Protein binding in Beagle dog plasma at 1 uM incubated for 6 hrs by dialysis based LC-MS/MS analysis; assay type: ADME, cell-free, Canis lupus familiaris; conditions: read-out: PPB (converted)
LoVo [12] = assay: Inhibition of colony formation of ATM-deficient human LoVo cells at 0.03 to 3 uM incubated for 2 weeks by crystal violet staining based assay; assay type: functional, cell-based; conditions: dose 0.03-3 µM
LoVo [13] = assay: Antimigratory activity against ATM-deficient human LoVo cells assessed as inhibition of cell migration at 0.03 to 3 uM incubated for 24 hrs by crystal violet staining based Transwell migration assay; assay type: functional; conditions: dose 0.03-3 µM
HCT-116 = assay: Antiproliferative activity against ATM-proficient human HCT-116 cells assessed as reduction in cell viability incubated for 3 days by MTT assay; assay type: functional, cell-based; conditions: HCT-116, 72 h
A549 [14] = assay: Antiproliferative activity against ATM-proficient human A549 cells assessed as reduction in cell viability incubated for 3 days in presence of AZD-1390 by MTT assay; assay type: functional, cell-based; conditions: A549, 72 h
A549 [15] = assay: Synergistic antiproliferative activity against ATM-proficient human A549 cells assessed as reduction in cell viability incubated for 3 days in presence of cisplatin by MTT assay; assay type: functional, cell-based; conditions: A549, 72 h
A549 [16] = assay: Synergistic antiproliferative activity against ATM-proficient human A549 cells assessed as reduction in cell viability incubated for 3 days in presence of oxaliplatin by MTT assay; assay type: functional, cell-based; conditions: A549, 72 h
MCF7 = assay: Synergistic antiproliferative activity against human MCF7 cells assessed as reduction in cell viability incubated for 3 days in presence of olaparib by MTT assay; assay type: functional, cell-based; conditions: MCF7, 72 h
MDA-MB-231 = assay: Antiproliferative activity against human MDA-MB-231 cells assessed as reduction in cell viability incubated for 3 days by MTT assay; assay type: functional, cell-based; conditions: MDA-MB-231, 72 h
[17] = Aqueous solubility of compound at pH 7.4 by HPLC-MS/MS analysis; assay type: physicochemical; conditions: aqueous medium
[18] = Apparent permeability across apical to basolateral side in human Caco-2 cells by bidirectional permeability assay; assay type: ADME, cell-based
[19] = target: Phosphatidylinositol 4,5-bisphosphate 3-kinase catalytic subunit alpha isoform (Homo sapiens, UniProt P42336); assay: Inhibition of PI3Kalpha (unknown origin) using peptide as substrate preincubated for 10 mins followed by substrate addition by microplate reader analysis
Sequence of Phosphatidylinositol 4,5-bisphosphate 3-kinase catalytic subunit alpha isoform (P42336 whole entry, canonical isoform): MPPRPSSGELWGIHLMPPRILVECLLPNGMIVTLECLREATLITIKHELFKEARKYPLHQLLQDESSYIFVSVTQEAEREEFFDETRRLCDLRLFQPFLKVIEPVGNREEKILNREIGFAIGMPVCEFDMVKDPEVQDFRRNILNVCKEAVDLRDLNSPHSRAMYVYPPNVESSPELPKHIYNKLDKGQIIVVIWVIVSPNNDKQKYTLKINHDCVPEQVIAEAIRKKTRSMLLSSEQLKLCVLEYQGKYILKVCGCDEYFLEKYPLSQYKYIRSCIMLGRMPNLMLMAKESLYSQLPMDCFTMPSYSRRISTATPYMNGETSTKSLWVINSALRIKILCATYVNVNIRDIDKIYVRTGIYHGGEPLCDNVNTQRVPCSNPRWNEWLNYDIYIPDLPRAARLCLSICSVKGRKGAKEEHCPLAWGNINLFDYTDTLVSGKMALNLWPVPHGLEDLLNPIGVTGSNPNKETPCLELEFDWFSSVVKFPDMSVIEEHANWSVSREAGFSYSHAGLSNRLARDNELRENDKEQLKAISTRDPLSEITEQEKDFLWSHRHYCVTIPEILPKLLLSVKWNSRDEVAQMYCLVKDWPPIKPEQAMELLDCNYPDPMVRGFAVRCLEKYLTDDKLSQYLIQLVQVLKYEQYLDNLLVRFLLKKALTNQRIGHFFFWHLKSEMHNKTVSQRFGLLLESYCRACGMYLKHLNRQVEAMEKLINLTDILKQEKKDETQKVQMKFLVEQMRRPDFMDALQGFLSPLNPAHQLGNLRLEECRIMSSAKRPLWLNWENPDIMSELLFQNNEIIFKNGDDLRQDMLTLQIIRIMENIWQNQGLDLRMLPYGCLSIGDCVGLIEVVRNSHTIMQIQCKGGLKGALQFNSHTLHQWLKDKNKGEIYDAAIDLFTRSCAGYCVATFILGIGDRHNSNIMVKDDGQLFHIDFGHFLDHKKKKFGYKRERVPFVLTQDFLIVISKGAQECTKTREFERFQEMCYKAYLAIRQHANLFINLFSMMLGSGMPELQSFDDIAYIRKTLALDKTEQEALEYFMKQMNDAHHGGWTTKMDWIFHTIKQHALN

[20] = target: Serine-protein kinase ATM (Homo sapiens, UniProt Q13315); assay: Inhibition of ATM (unknown origin) using peptide as substrate preincubated for 10 mins followed by substrate addition by microplate reader analysis
[21] = target: DNA-dependent protein kinase catalytic subunit (Homo sapiens, UniProt P78527); assay: Inhibition of DNA-PK (unknown origin) using peptide as substrate preincubated for 10 mins followed by substrate addition by microplate reader analysis
in vitro = conditions: rat, liver microsomes
LoVo [22] = assay: Antiproliferative activity against ATM-deficient human LoVo cells assessed as reduction in cell proliferation at 0.1 to 25 uM incubated for 3 days by MTT assay; assay type: functional, cell-based; conditions: dose 0.1-25 µM, time 3.0 day
HT-29 = assay: Antiproliferative activity against ATM-proficient human HT-29 cells assessed as reduction in cell proliferation at 0.5 to 22 uM incubated for 3 days by MTT assay; assay type: functional, cell-based; conditions: dose 0.5-22 µM, time 3.0 day
LoVo [23] = assay: Inhibition of colony formation of ATM-deficient human LoVo cells at 0.3 to 1 uM incubated for 2 weeks by crystal violet staining based assay; assay type: functional, cell-based; conditions: dose 0.3-1 µM

| Structure (SMILES) | pIC50 [1] | pIC50 (LoVo [2]) | AUC(0-inf) [3] [ng·h/mL] | AUC(0-t) at 24 h [4] [ng·h/mL] | clearance [5] [mL/min/kg] | half-life [6] [h] | AUC(0-inf) [7] [ng·h/mL] | pIC50 (Cytochrome P450 3A4 [8]) | pIC50 (Cytochrome P450 3A4 [9]) | fraction unbound at 6 h, 1 µM [10] | fraction unbound at 6 h, 1 µM [11] | inhibition (LoVo [12]) | inhibition (LoVo [13]) | pIC50 (HCT-116) | pIC50 (A549 [14]) | pIC50 (A549 [15]) | pIC50 (A549 [16]) | pIC50 (MCF7) | pIC50 (MDA-MB-231) | solubility [17] [µM] | also measured |
| --- | --- | --- | --- | --- | --- | --- | --- | --- | --- | --- | --- | --- | --- | --- | --- | --- | --- | --- | --- | --- | --- |
| C[C@@H]1COCCN1c1nc(-c2cccc3[nH]ccc23)nc2c1CN(C(=O)c1ccc3c(c1)OCO3)C2(C)C | 8.30 | 7.11 | 2810 | 2740 | 5.97 | 3.81 | 6170 | 6.00 | 6.00 | 0.001 | 0.005 | Dose-Dependent Effect | Active | 6.71 | 6.90 | 6.36 | 6.47 | 6.46 | 5.59 | 0.34 (≈ 0.174 µg/mL) | Papp A→B [18]: 1.91 ×10⁻⁶ cm/s; pIC50 [19]: 6.00; pIC50 [20]: 6.29; pIC50 [21]: 6.00; microsomal CLint at 1 h, 1 µM (in vitro): 35.3 µL/min/mg |
| C[C@@H]1COCCN1c1nc(-c2cccc3[nH]ccc23)nc2c1CN(C(=O)c1cccc(S(C)(=O)=O)c1)C2(C)C | 8.52 | 7.40 | 1170 | 1160 | 14.2 | 2.66 | 1750 | 6.00 | 5.00 | 0.003 | 0.022 | Dose-Dependent Effect | Active | 7.39 | 7.89 | 6.55 | 6.94 | 6.48 | 5.97 | 15.4 (≈ 8.4 µg/mL) | Activity (LoVo [22]): Dose-Dependent Effect; Activity (HT-29): Dose-Dependent Effect; inhibition (LoVo [23]): Active; Papp A→B [18]: 8.23 ×10⁻⁶ cm/s; pIC50 [19]: 6.00; pIC50 [20]: 6.00; pIC50 [21]: 6.18; microsomal CLint at 1 h, 1 µM (in vitro): 66.2 µL/min/mg |
